PubChem BioAssay AID2060509 (Molecular Pharmacology Branch, DTP, NCI, 2025)

System: 485176-168-R4-J1-PDC spheroids with HUVEC/MSC, viability
Assay: Anticancer human tumor 485176-168-R4-J1-PDC patient-derived pancreatic adenocarcinoma cell line growth inhibition [GQUAD]
Settings: for IC50: curve of first compound; for viability, T/C: stronger effect = lower value
Source text: DNA G-quadruplex Stabilizer Agents in Combinations in Complex Spheroids
A high-throughput screen of multi-cell type tumor spheroids was designed to identify active combinations of DNA G-quadruplex stabilizer agents and targeted small molecules. Complex spheroids include a stromal component modeled by human endothelial cells (HUVEC) and fibroblasts modeled by human mesenchymal stem cells (MSCs). The concentration ranges selected for each drug and investigational agent were based upon clinically achievable concentrations if the clinical Cmax of the agent was known.
Compounds. The drugs and investigational agents: pidnarulex (CX-5461; NSC782164), APTO-253 (NSC789042), BRACO-19 (NSC847499), peposertib (NSC802822), ceralasertib (NSC780249), elimusertib (NSC800525), camonsertib (NSC841442), AZD-1390 (NSC803789), olaparib (NSC753686), talazoparib (NSC767125), ART-558 (NSC835418), sotorasib (NSC818433), MRTX-1133 (NSC836407), SN-38 (NSC673596), topotecan (NSC609699), etoposide (NSC141540), doxorubicin (NSC123127), gemcitabine (NSC613327), 5-fluorouracil (NSC19893), paclitaxel (NSC125973), vemurafenib (NSC761431), panobinostat (NSC761190), R-306465 (JNJ-16241199; NSC773264), adavosertib (NSC754352), TP-3654 (NSC805149), carboplatin (NSC241240), KSQ-4279 (NSC840948), and staurosporine (NSC755774) were obtained from the National Cancer Institute (NCI) Developmental Therapeutics Program Chemical Repository (34). The FDA-approved anticancer drug set is available from the NCI Developmental Therapeutics Program. […] The stock solutions were prepared in dimethyl sulfoxide (DMSO, Sigma-Aldrich, St. Louis, MO, cat. D2650) at 800-fold the tested concentration and stored at -70 degrees C prior to their use. All drugs and investigational agents were tested over a range starting from a high concentration at or near the clinical Cmax and decreasing in half-log increments. If the clinical Cmax for an agent had not been determined, the highest concentration tested was 10 microM.
2.3 Cell Culture. All cells were maintained in an incubator at 37 degrees C and 5% CO2 with 95% humidity. The PDC lines were cultured according to standard operating procedures established by the NCI PDMR. All PDCs were thawed and cultured in Matrigel-coated flasks prepared with a working solution of 1X Ham's F-12 nutrient mix, without supplementation (Invitrogen, cat. 11765054), 100 U/mL penicillin-streptomycin (Invitrogen, cat. 15140122), and 2.5% Matrigel (Corning Inc., cat. 354248) for the first three passages. The 857933-349-R-J2-PDC line was cultured in 6C/Colon 1B media, which includes advanced DMEM/F-12 (Thermo Fisher Scientific, cat. 12634028), 10 mM HEPES (Thermo Fisher Scientific, cat. 15630080), 1X GlutaMAX supplement (Thermo Fisher Scientific, cat. 35050061), 0.1 mg/mL primocin (InvivoGen, cat. ant-pm-2), 10% defined fetal bovine serum, heat inactivated (HyClone Laboratories Inc., cat. SH30070.03HI), 50% L-WRN conditioned media (ATCC, cat. CRL-3276), 1.25 mM N-Acetyl-L-cysteine (Sigma-Aldrich, cat. A9165), 10 mM nicotinamide (Sigma-Aldrich, cat. N0636), 1X B-27 supplement (Thermo Fisher Scientific, cat. 17504044), 1X N-2 supplement (Thermo Fisher Scientific, cat. 17502048), 10 microM Y-27632 dihydrochloride (Tocris Bioscience, cat. 1254), and 50 ng/mL human EGF recombinant protein (Thermo Fisher Scientific, cat. PHG0311). The 485176-168-R4-J1-PDC line was cultured in Panc media, which includes all 6C/Colon 1B media components plus 100 ng/mL human FGF-10 (Thermo Fisher Scientific, cat. 100-26), 500 nM SB-431542 (Selleckchem, cat. S1067), and gastrin (Tocris, cat. 3006).
[…]

[1] = second compound 0.0316 µM, first compound 0.0316 µM
[2] = second compound 0.0316 µM, first compound 0.316 µM
[3] = second compound 0.1 µM, first compound 0.0316 µM
[4] = second compound 0.1 µM, first compound 0.316 µM
[5] = second compound 0.316 µM, first compound 0.0316 µM
[6] = second compound 0.316 µM, first compound 0.316 µM
[7] = second compound 1 µM, first compound 0.0316 µM
[8] = second compound 1 µM, first compound 0.316 µM
[9] = second compound 3.16 µM, first compound 0.0316 µM
[10] = second compound 3.16 µM, first compound 0.316 µM
[11] = second compound 10 µM, first compound 0.0316 µM
[12] = second compound 10 µM, first compound 0.316 µM
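Further: spheroids exposed to compounds for seven days before readout.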
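Wherever viability, T/C is given: percent viability relative to DMSO vehicle control wells as 100%.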

## Cc1cccc(N(C)C(=O)C2C(O)CCN2c2nc(C)cc(C(F)(F)F)c2C#N)c1 (centres undefined) + Cc1cnc(CNC(=O)c2c(=O)c3ccc(N4CCCN(C)CC4)nc3n3c2sc2ccccc23)cn1
Second compound 0.0316 µM
  IC50: > 10000 nM
Second compound 0.1 µM
  IC50: > 10000 nM
Second compound 0.316 µM
  IC50: > 10000 nM
Second compound 1 µM
  IC50: > 10000 nM
Second compound 3.16 µM
  IC50: < 31.6 nM
Second compound 10 µM
  IC50: < 31.6 nM
[1]
  viability, T/C: 91.9%
Second compound 0.0316 µM, first compound 0.1 µM
  viability, T/C: 100%
[2]
  viability, T/C: 89%
Second compound 0.0316 µM, first compound 1 µM
  viability, T/C: 97.2%
Second compound 0.0316 µM, first compound 3.16 µM
  viability, T/C: 96%
Second compound 0.0316 µM, first compound 10 µM
  viability, T/C: 98.3%
[3]
  viability, T/C: 64.2%
Second compound 0.1 µM, first compound 0.1 µM
  viability, T/C: 78%
[4]
  viability, T/C: 78.6%
Second compound 0.1 µM, first compound 1 µM
  viability, T/C: 67.9%
Second compound 0.1 µM, first compound 3.16 µM
  viability, T/C: 65.8%
Second compound 0.1 µM, first compound 10 µM
  viability, T/C: 67.8%
[5]
  viability, T/C: 66.8%
Second compound 0.316 µM, first compound 0.1 µM
  viability, T/C: 64%
[6]
  viability, T/C: 56.3%
Second compound 0.316 µM, first compound 1 µM
  viability, T/C: 60.9%
Second compound 0.316 µM, first compound 3.16 µM
  viability, T/C: 66.6%
Second compound 0.316 µM, first compound 10 µM
  viability, T/C: 60.5%
[7]
  viability, T/C: 52%
Second compound 1 µM, first compound 0.1 µM
  viability, T/C: 45.5%
[8]
  viability, T/C: 53.9%
Second compound 1 µM, first compound 1 µM
  viability, T/C: 45.9%
Second compound 1 µM, first compound 3.16 µM
  viability, T/C: 57.1%
Second compound 1 µM, first compound 10 µM
  viability, T/C: 47.5%
[9]
  viability, T/C: 44%
Second compound 3.16 µM, first compound 0.1 µM
  viability, T/C: 47.9%
[10]
  viability, T/C: 39.5%
Second compound 3.16 µM, first compound 1 µM
  viability, T/C: 43.3%
Second compound 3.16 µM, first compound 3.16 µM
  viability, T/C: 47.8%
Second compound 3.16 µM, first compound 10 µM
  viability, T/C: 40.7%
[11]
  viability, T/C: 42.7%
Second compound 10 µM, first compound 0.1 µM
  viability, T/C: 39%
[12]
  viability, T/C: 43.4%
Second compound 10 µM, first compound 1 µM
  viability, T/C: 38.1%
Second compound 10 µM, first compound 3.16 µM
  viability, T/C: 45.7%
Second compound 10 µM, first compound 10 µM
  viability, T/C: 40.6%

## Cn1ncnc1[C@H]1c2n[nH]c(=O)c3cc(F)cc(c23)N[C@@H]1c1ccc(F)cc1 + Cc1cnc(CNC(=O)c2c(=O)c3ccc(N4CCCN(C)CC4)nc3n3c2sc2ccccc23)cn1
Second compound 0.0316 µM
  IC50: > 316 nM
Second compound 0.1 µM
  IC50: > 316 nM
Second compound 0.316 µM
  IC50: > 316 nM
Second compound 1 µM
  IC50: > 316 nM
Second compound 3.16 µM
  IC50: 7.33 nM
Second compound 10 µM
  IC50: < 0.999 nM
Second compound 0.0316 µM, first compound 0.000999 µM
  viability, T/C: 90.2%
Second compound 0.0316 µM, first compound 0.00316 µM
  viability, T/C: 79%
Second compound 0.0316 µM, first compound 0.00999 µM
  viability, T/C: 91.5%
[1]
  viability, T/C: 90.2%
Second compound 0.0316 µM, first compound 0.0999 µM
  viability, T/C: 91.4%
[2]
  viability, T/C: 80.8%
Second compound 0.1 µM, first compound 0.000999 µM
  viability, T/C: 74.4%
Second compound 0.1 µM, first compound 0.00316 µM
  viability, T/C: 91.7%
Second compound 0.1 µM, first compound 0.00999 µM
  viability, T/C: 75.8%
[3]
  viability, T/C: 77.3%
Second compound 0.1 µM, first compound 0.0999 µM
  viability, T/C: 78.9%
[4]
  viability, T/C: 69.9%
Second compound 0.316 µM, first compound 0.000999 µM
  viability, T/C: 63.6%
Second compound 0.316 µM, first compound 0.00316 µM
  viability, T/C: 70.5%
Second compound 0.316 µM, first compound 0.00999 µM
  viability, T/C: 64.8%
[5]
  viability, T/C: 62.7%
Second compound 0.316 µM, first compound 0.0999 µM
  viability, T/C: 56.2%
[6]
  viability, T/C: 68.7%
Second compound 1 µM, first compound 0.000999 µM
  viability, T/C: 49.3%
Second compound 1 µM, first compound 0.00316 µM
  viability, T/C: 61.2%
Second compound 1 µM, first compound 0.00999 µM
  viability, T/C: 74%
[7]
  viability, T/C: 51.8%
Second compound 1 µM, first compound 0.0999 µM
  viability, T/C: 52.8%
[8]
  viability, T/C: 48.5%
Second compound 3.16 µM, first compound 0.000999 µM
  viability, T/C: 45.4%
Second compound 3.16 µM, first compound 0.00316 µM
  viability, T/C: 63.9%
Second compound 3.16 µM, first compound 0.00999 µM
  viability, T/C: 48.3%
[9]
  viability, T/C: 45.3%
Second compound 3.16 µM, first compound 0.0999 µM
  viability, T/C: 45.4%
[10]
  viability, T/C: 40%
Second compound 10 µM, first compound 0.000999 µM
  viability, T/C: 42.8%
Second compound 10 µM, first compound 0.00316 µM
  viability, T/C: 48.4%
Second compound 10 µM, first compound 0.00999 µM
  viability, T/C: 39.2%
[11]
  viability, T/C: 34.8%
Second compound 10 µM, first compound 0.0999 µM
  viability, T/C: 38.1%
[12]
  viability, T/C: 33.5%
